Test results reported in patent publication US20220105108A1, “PERIVASCULAR ANTI-INFLAMMATORY THERAPY FOR VENOUS THROMBOSIS” (Mercator MedSystems, Inc., priority 2020, published 2022).
Like-named read-outs stand apart in the source and are kept apart here.

What was measured:
[1] = DANCE-Pilot study and DANCE trial: adventitial dexamethasone after femoropopliteal revascularization; format: in vivo, human; conditions: for transient hyperglycemia event: controlled with insulin; for Rate of CD-TLR: 12 months
Text: Provided herein are examples of in vivo human clinical trials using the Bullfrog Micro-Infusion Device for local delivery of dexamethasone. The Bullfrog Micro-Infusion Device was successfully used in the DANCE (Dexamethasone to the Adventitia to Enhance Clinical Efficacy After Femoropopliteal Revascularization)-Pilot study and the DANCE trial in superficial femoral and popliteal arteries.
In the DANCE-Pilot study, 20 subjects were enrolled and treated with the Bullfrog device delivery of dexamethasone sodium phosphate. In the DANCE trial, 283 limbs were enrolled and treated with the Bullfrog device delivery of dexamethasone sodium phosphate. In 3.3% of the subjects enrolled in DANCE, there was no detected contrast medium distribution in the adventitia and perivascular tissues. In one subject in DANCE-Pilot and one subject in DANCE, there was a transient hyperglycemia event reported, which was treated and controlled with insulin therapy. There were no other unexpected adverse device events or suspected unexpected severe adverse reactions reported in the study.
The single-arm DANCE (Dexamethasone to the Adventitia to Enhance Clinical Efficacy After Femoropopliteal Revascularization) trial enrolled 262 subjects (283 limbs) with symptomatic peripheral artery disease (Rutherford category 2 to 4) receiving percutaneous transluminal angioplasty (PTA) (n=124) or atherectomy (ATX) (n=159) in femoropopliteal lesions <15 cm in length. A mixture of dexamethasone/contrast medium (80%/20%) was delivered to the adventitia and perivascular tissues surrounding target lesions in all subjects. Thirty-day assessments included major adverse limb events (MALE) and post-operative death. Twelve-month assessments included primary patency, freedom from clinically driven target lesion revascularization (CD-TLR), Rutherford scoring, and walking impairment questionnaire. […] In the secondary analysis, both the ATX and PTA DANCE groups were noninferior to the 72.3% contemporary performance goal, whether examining the PP (P<0.001 and P<0.004, respectively) or ITT (P<0.002 and P<0.005, respectively) population.

[2] = tested on: P-selectin; conditions: cited from earlier work
[3] = tested on: vWF; conditions: at 24 hours and 48 hours with dexamethasone treatment; cited from earlier work
[4] = Local toxicity of dexamethasone administered via Bullfrog device to peripheral and coronary arteries in swine; conditions: 28±3 days
[5] = in vivo
[6] = 10 mg equivalent dexamethasone phosphate in 3 ml, after angioplasty, 14 days

## C[C@@H]1C[C@H]2[C@@H]3CCC4=CC(=O)C=C[C@]4(C)[C@@]3(F)[C@@H](O)C[C@]2(C)[C@@]1(O)C(=O)COP(=O)(O)O [dexamethasone sodium phosphate]
[1]; DANCE-Pilot and DANCE
  other unexpected adverse device events or suspected unexpected severe adverse reactions: no other
[1]; DANCE-Pilot, 20 subjects
  transient hyperglycemia event: one subject
[1]; DANCE
  transient hyperglycemia event: one subject

## C[C@@H]1C[C@H]2[C@@H]3CCC4=CC(=O)C=C[C@]4(C)[C@@]3(F)[C@@H](O)C[C@]2(C)[C@@]1(O)C(=O)CO [dexamethasone, 9-fluoro-11(beta),17,21-trihydroxy-16(alpha)-methylpregna-1,4-diene-3,20-dione]
[2]; dexamethasone treatment
  P-selectin, time of elevation: 48 h
[2]; high dose 1 mg/kg bid×2 days, healthy males
  P-selectin levels: induced elevated P-selectin levels
[2]; low dose 0.04 mg/kg bid×2 days
  P-selectin levels: did not induce elevated P-selectin levels
[3]
  vWF: elevated
[4]
  gross necropsy, injury to the treatment areas: no evidence of injury
  local toxicity to the treated vessels (microscopic evaluation): no evidence of local toxicity
  local vascular irritation upon injection: no evidence of local vascular irritation
  peripheral organs abnormalities associated with test article: did not reveal any abnormalities
  thrombosis or stenosis of treated vessels: no evidence of thrombosis or stenosis
[4]; up to 83.2 mg per subject
  adverse postoperative events leading to early death: None of the animals
[5]
  adverse or toxicologically meaningful changes in the treated vessels: no adverse or toxicologically meaningful changes
[6]
  histopathology findings of femoral GVA vs perivascular placebo: no differences
[1]; DANCE trial
  30-day MALE+post-operative death events: no 30-day MALE+post-operative death events
[1]; DANCE-ATX, ITT
  Rate of CD-TLR: 13.1%
[1]; DANCE-ATX, intent-to-treat
  primary patency rate at 12 months: 74.8%
[1]; DANCE-ATX, per-protocol
  primary patency rate at 12 months: 78.4%
  Rate of CD-TLR: 10.0%
[1]; DANCE-PTA, ITT
  Rate of CD-TLR: 13.7%
[1]; DANCE-PTA, intent-to-treat
  primary patency rate at 12 months: 74.3%
[1]; DANCE-PTA, per-protocol
  primary patency rate at 12 months: 75.5%
  Rate of CD-TLR: 11.0%
[1]; in vivo
  dose-limiting toxicity: No dose-limiting toxicity
